Experimental data from patent US20180289678A1, “PHARMACEUTICAL COMPOSITION, PHARMACEUTICAL DOSAGE FORM, PROCESS FOR THEIR PREPARATION, METHODS FOR TREATING AND USES THEREOF” (Boehringer Ingelheim International GmbH, priority 2009, published 2018).

Key:
[1] = Study .3: single dose, cross-over, food effect study in healthy volunteers, pharmacokinetic parameters; type: in vivo, human; details: 50 mg single dose
Method: (§1) 5. Pharmacokinetic Parameters
(§2) The pharmacokinetic parameters of pharmaceutical compositions and pharmaceutical dosage forms are assessed in healthy volunteer and patient populations. In the studies shown below, the participants fasted on the day of sampling, unless as otherwise stated (see for example study .3). The active substance in the studies below is the compound (I.9), preferably in the crystalline form (I.9X), and the dose of active ingredient is indicated in mg.
(§3) For the quantification of plasma concentrations of the active ingredient, 2.7 mL of blood was collected and transferred into an EDTA (ethylendiaminetetraacetic acid)-anticoagulant blood drawing tube. The EDTA-anticoagulated blood samples were centrifuged immediately after collection. Centrifugation lasted for about 10 minutes (at about 2,000×gf to 4,000×gf) at 4-8° C. or within 30 minutes while stored on ice. Concentrations of active substance in EDTA human plasma samples were quantitated using a HPLC/MS/MS method. The assay method comprised a solid phase supported liquid-liquid extraction of human plasma coupled with HPLC/MS/MS determination of the extracted samples. The HPLC/MS/MS assay was validated for the range of 1.11 to 1110 nM in human plasma.
Study .3: Single dose, cross-over, food effect study in a healthy volunteer population of N=14. Healthy volunteers were administered tablets as described in Example 10 (section Examples of formulations).
(§4) AUC0-inf:area under the concentration-time curve of the analyte in plasma over the time interval from 0 extrapolated to infinity.
(§5) Cmax: maximum concentration of the analyte in plasma.
(§6) Tmax: time from dosing to maximum concentration.

[2] = Study .5: single dose study in healthy Japanese volunteers, pharmacokinetic parameters; type: in vivo, human; details: Study .5, fasted
Method: as §1, §2, §3
Study .5: Single dose study in a healthy volunteer population of N=48 (Japanese volunteers). Healthy volunteers were administered tablets as described in Example 11 (section Examples of formulations).
as §4, §5, §6

OC[C@H]1O[C@@H](c2ccc(Cl)c(Cc3ccc(O[C@H]4CCOC4)cc3)c2)[C@H](O)[C@@H](O)[C@@H]1O [Compound (I.9), 1-chloro-4-(β-D-glucopyranos-1-yl)-2-[4-((S)-tetrahydrofuran-3-yloxy)-benzyl]-benzene]
AUC0-inf Max ([1]; Study .3/fasted): 14.1 µM·h | AUC0-inf Min ([1]; Study .3/fasted): 6.45 µM·h | AUC0-inf,norm Max ([1]; Study .3/fasted): 282 nmol·h/L/mg | AUC0-inf,norm Median ([1]; Study .3/fasted): 159 nmol·h/L/mg | AUC0-inf,norm Min ([1]; Study .3/fasted): 129 nmol·h/L/mg | AUC0-inf,norm gMean ([1]; Study .3/fasted): 166 nmol·h/L/mg | Cmax,norm Max ([1]; Study .3/fasted): 40 nmol/L/mg | Cmax,norm Median ([1]; Study .3/fasted): 20 nmol/L/mg | Cmax,norm Min ([1]; Study .3/fasted): 18 nmol/L/mg | Cmax,norm gMean ([1]; Study .3/fasted): 23 nmol/L/mg | tmax Max ([1]; Study .3/fasted): 4.07 h | tmax Min ([1]; Study .3/fasted): 0.750 h | Cmax ([1]; Study .3/fasted, read-out: Cmax Max): 2.02 µM | Cmax ([1]; Study .3/fasted, read-out: Cmax Min): 0.878 µM | AUC0-inf Max ([1]; Study .3/fed): 10.8 µM·h | AUC0-inf Min ([1]; Study .3/fed): 5.06 µM·h | AUC0-inf,norm Max ([1]; Study .3/fed): 216 nmol·h/L/mg | AUC0-inf,norm Median ([1]; Study .3/fed): 150 nmol·h/L/mg | AUC0-inf,norm Min ([1]; Study .3/fed): 101 nmol·h/L/mg | AUC0-inf,norm gMean ([1]; Study .3/fed): 149 nmol·h/L/mg | Cmax,norm Max ([1]; Study .3/fed): 21 nmol/L/mg | Cmax,norm Median ([1]; Study .3/fed): 17 nmol/L/mg | Cmax,norm Min ([1]; Study .3/fed): 9 nmol/L/mg | Cmax,norm gMean ([1]; Study .3/fed): 16 nmol/L/mg | tmax Max ([1]; Study .3/fed): 4.00 h | tmax Min ([1]; Study .3/fed): 1.00 h | Cmax ([1]; Study .3/fed, read-out: Cmax Max): 1.07 µM | Cmax ([1]; Study .3/fed, read-out: Cmax Min): 0.436 µM | AUC(0-inf) ([1]; human, plasma, oral, 50 mg, Study .3/fasted, read-out: AUC0-inf Mean): 8.51 µM·h | AUC(0-inf) ([1]; human, plasma, oral, 50 mg, Study .3/fasted, read-out: AUC0-inf Median): 7.93 µM·h | AUC(0-inf) ([1]; human, plasma, oral, 50 mg, Study .3/fasted, read-out: AUC0-inf gMean): 8.31 µM·h | Cmax ([1]; human, plasma, oral, 50 mg, Study .3/fasted, read-out: Cmax Mean): 1.18 µM | Cmax ([1]; human, plasma, oral, 50 mg, Study .3/fasted, read-out: Cmax Median): 1.01 µM | Cmax ([1]; human, plasma, oral, 50 mg, Study .3/fasted, read-out: Cmax gMean): 1.14 µM | Tmax ([1]; human, plasma, oral, 50 mg, Study .3/fasted, read-out: tmax Mean): 1.53 h | Tmax ([1]; human, plasma, oral, 50 mg, Study .3/fasted, read-out: tmax Median): 1.02 h | Tmax ([1]; human, plasma, oral, 50 mg, Study .3/fasted, read-out: tmax gMean): 1.29 h | AUC(0-inf) ([1]; human, plasma, oral, 50 mg, Study .3/fed, read-out: AUC0-inf Mean): 7.59 µM·h | AUC(0-inf) ([1]; human, plasma, oral, 50 mg, Study .3/fed, read-out: AUC0-inf Median): 7.49 µM·h | AUC(0-inf) ([1]; human, plasma, oral, 50 mg, Study .3/fed, read-out: AUC0-inf gMean): 7.46 µM·h | Cmax ([1]; human, plasma, oral, 50 mg, Study .3/fed, read-out: Cmax Mean): 0.824 µM | Cmax ([1]; human, plasma, oral, 50 mg, Study .3/fed, read-out: Cmax Median): 0.83 µM | Cmax ([1]; human, plasma, oral, 50 mg, Study .3/fed, read-out: Cmax gMean): 0.806 µM | Tmax ([1]; human, plasma, oral, 50 mg, Study .3/fed, read-out: tmax Mean): 2.46 h | Tmax ([1]; human, plasma, oral, 50 mg, Study .3/fed, read-out: tmax Median): 2.48 h | Tmax ([1]; human, plasma, oral, 50 mg, Study .3/fed, read-out: tmax gMean): 2.18 h | AUC0-inf Max ([2]; 5 mg single dose): 1.31 µM·h | AUC0-inf Min ([2]; 5 mg single dose): 1 µM·h | AUC0-inf,norm Max ([2]; 5 mg single dose): 262 nmol·h/L/mg | AUC0-inf,norm Median ([2]; 5 mg single dose): 230 nmol·h/L/mg | AUC0-inf,norm Min ([2]; 5 mg single dose): 200 nmol·h/L/mg | AUC0-inf,norm gMean ([2]; 5 mg single dose): 228 nmol·h/L/mg | Cmax,norm Max ([2]; 5 mg single dose): 46 nmol/L/mg | Cmax,norm Median ([2]; 5 mg single dose): 31 nmol/L/mg | Cmax,norm Min ([2]; 5 mg single dose): 25 nmol/L/mg | Cmax,norm gMean ([2]; 5 mg single dose): 32 nmol/L/mg | tmax Min ([2]; 5 mg single dose): 0.750 h | Cmax ([2]; 5 mg single dose, read-out: Cmax Max): 0.23 µM | Cmax ([2]; 5 mg single dose, read-out: Cmax Min): 0.123 µM | AUC0-inf Max ([2]; 10 mg single dose): 3.19 µM·h | AUC0-inf Min ([2]; 10 mg single dose): 2.34 µM·h | AUC0-inf,norm Max ([2]; 10 mg single dose): 319 nmol·h/L/mg | AUC0-inf,norm Median ([2]; 10 mg single dose): 264 nmol·h/L/mg | AUC0-inf,norm Min ([2]; 10 mg single dose): 234 nmol·h/L/mg | AUC0-inf,norm gMean ([2]; 10 mg single dose): 266 nmol·h/L/mg | Cmax,norm Max ([2]; 10 mg single dose): 45 nmol/L/mg | Cmax,norm Median ([2]; 10 mg single dose): 40 nmol/L/mg | Cmax,norm Min ([2]; 10 mg single dose): 24 nmol/L/mg | Cmax,norm gMean ([2]; 10 mg single dose): 37 nmol/L/mg | tmax Max ([2]; 10 mg single dose): 3.00 h | tmax Min ([2]; 10 mg single dose): 1.00 h | Cmax ([2]; 10 mg single dose, read-out: Cmax Max): 0.454 µM | Cmax ([2]; 10 mg single dose, read-out: Cmax Min): 0.242 µM | AUC0-inf Max ([2]; 25 mg single dose): 7.15 µM·h | AUC0-inf Min ([2]; 25 mg single dose): 5.04 µM·h | AUC0-inf,norm Max ([2]; 25 mg single dose): 286 nmol·h/L/mg | AUC0-inf,norm Median ([2]; 25 mg single dose): 254 nmol·h/L/mg | AUC0-inf,norm Min ([2]; 25 mg single dose): 202 nmol·h/L/mg | AUC0-inf,norm gMean ([2]; 25 mg single dose): 245 nmol·h/L/mg | Cmax,norm Max ([2]; 25 mg single dose): 32 nmol/L/mg | Cmax,norm Median ([2]; 25 mg single dose): 26 nmol/L/mg | Cmax,norm Min ([2]; 25 mg single dose): 24 nmol/L/mg | Cmax,norm gMean ([2]; 25 mg single dose): 26 nmol/L/mg | tmax Max ([2]; 25 mg single dose): 4.00 h | tmax Min ([2]; 25 mg single dose): 1.00 h | Cmax ([2]; 25 mg single dose, read-out: Cmax Max): 0.79 µM | Cmax ([2]; 25 mg single dose, read-out: Cmax Min): 0.605 µM | AUC(0-inf) ([2]; human, plasma, oral, 5 mg, 5 mg single dose, read-out: AUC0-inf Mean): 1.14 µM·h | AUC(0-inf) ([2]; human, plasma, oral, 5 mg, 5 mg single dose, read-out: AUC0-inf Median): 1.15 µM·h | AUC(0-inf) ([2]; human, plasma, oral, 5 mg, 5 mg single dose, read-out: AUC0-inf gMean): 1.14 µM·h | Cmax ([2]; human, plasma, oral, 5 mg, 5 mg single dose, read-out: Cmax Mean): 0.166 µM | Cmax ([2]; human, plasma, oral, 5 mg, 5 mg single dose, read-out: Cmax Median): 0.153 µM | Cmax ([2]; human, plasma, oral, 5 mg, 5 mg single dose, read-out: Cmax gMean): 0.161 µM | Tmax ([2]; human, plasma, oral, 5 mg, 5 mg single dose, read-out: tmax Mean): 1.63 h | Tmax ([2]; human, plasma, oral, 5 mg, 5 mg single dose, read-out: tmax Median): 2 h | Tmax ([2]; human, plasma, oral, 5 mg, 5 mg single dose, read-out: tmax gMean): 1.51 h | AUC(0-inf) ([2]; human, plasma, oral, 10 mg, 10 mg single dose, read-out: AUC0-inf Mean): 2.67 µM·h | AUC(0-inf) ([2]; human, plasma, oral, 10 mg, 10 mg single dose, read-out: AUC0-inf Median): 2.64 µM·h | AUC(0-inf) ([2]; human, plasma, oral, 10 mg, 10 mg single dose, read-out: AUC0-inf gMean): 2.66 µM·h | Cmax ([2]; human, plasma, oral, 10 mg, 10 mg single dose, read-out: Cmax Mean): 0.379 µM | Cmax ([2]; human, plasma, oral, 10 mg, 10 mg single dose, read-out: Cmax Median): 0.398 µM | Cmax ([2]; human, plasma, oral, 10 mg, 10 mg single dose, read-out: Cmax gMean): 0.372 µM | Tmax ([2]; human, plasma, oral, 10 mg, 10 mg single dose, read-out: tmax Mean): 1.67 h | Tmax ([2]; human, plasma, oral, 10 mg, 10 mg single dose, read-out: tmax Median): 1.5 h | Tmax ([2]; human, plasma, oral, 10 mg, 10 mg single dose, read-out: tmax gMean): 1.54 h | AUC(0-inf) ([2]; human, plasma, oral, 25 mg, 25 mg single dose, read-out: AUC0-inf Mean): 6.18 µM·h | AUC(0-inf) ([2]; human, plasma, oral, 25 mg, 25 mg single dose, read-out: AUC0-inf Median): 6.34 µM·h | AUC(0-inf) ([2]; human, plasma, oral, 25 mg, 25 mg single dose, read-out: AUC0-inf gMean): 6.13 µM·h | Cmax ([2]; human, plasma, oral, 25 mg, 25 mg single dose, read-out: Cmax Mean): 0.661 µM | Cmax ([2]; human, plasma, oral, 25 mg, 25 mg single dose, read-out: Cmax Median): 0.643 µM | Cmax ([2]; human, plasma, oral, 25 mg, 25 mg single dose, read-out: Cmax gMean): 0.658 µM | Tmax ([2]; human, plasma, oral, 25 mg, 25 mg single dose, read-out: tmax Mean): 2.33 h | Tmax ([2]; human, plasma, oral, 25 mg, 25 mg single dose, read-out: tmax Median): 2 h | Tmax ([2]; human, plasma, oral, 25 mg, 25 mg single dose, read-out: tmax gMean): 2.14 h
